Measured values from paper PMC6152134, “Synthesis and In Vitro Anticancer Activity of Novel Dehydroabietic Acid-Based Acylhydrazones” (Molecules : A Journal of Synthetic Chemistry and Natural …, 2017).

Legend:
[1] = system: CNE-2 (nasopharynx) human carcinoma cell line; test: MTT cytotoxicity assay, CNE-2 cells; type: cell-based; details: Homo sapiens, 48 h exposure
Description: (§1) Compounds 4a–x were evaluated for their cytotoxic activity in vitro against the human cancer cell lines, CNE-2, HepG2, HeLa, and BEL-7402 by using a 3-(4,5-dimethylthiazol-2-yl)-2,5-diphenyl tetrazolium bromide (MTT) colorimetric assay. Cisplatin was included in the experiments as a positive control, and the IC50 of DHA is also presented to compare the anticancer activities. The calculated IC50 values were reported differently according to the different cancer cells.
(§2) The CNE-2, HepG2, HeLa, and BEL-7402 cell lines used in this work were all purchased from the Institute of Biochemistry and Cell Biology, China Academy of Sciences. All were supplemented with 10% heat-inactivated fetal bovine serum in a humidified atmosphere of 5% CO2/95% air at 37 °C. In order to investigate the potential of compounds 4, cisplatin, a commercial classical anticancer drug was used as a reference drug. CNE-2, HepG2, HeLa, and BEL-7402 cells were seeded into 96-well microculture plates and allowed to adhere for 24 h, respectively. After cells were exposed to compounds at concentrations from 100 to 0.1 μM for 48 h, medium was aspirated and replenished with complete medium. IC50 values was evaluated by MTT tetrazolium dye assay. All the tests were repeated in at least three independent experiments. The IC50 values of the compounds were calculated using SPSS Version 10 software (IBM, New York, NY, USA), which defined the IC50 value as the concentration required to inhibit cell growth by 50%.

[2] = system: HepG2 (liver) human carcinoma cell line; test: MTT cytotoxicity assay, HepG2 cells; type: cell-based; details: 48 h exposure
Description: as §1, §2

[3] = system: HeLa (epithelial cervical) human carcinoma cell line; test: MTT cytotoxicity assay, HeLa cells; type: cell-based; details: 48 h exposure
Description: as §1, §2

[4] = system: BEL-7402 (liver) human carcinoma cell line; test: MTT cytotoxicity assay, BEL-7402 cells; type: cell-based; details: Homo sapiens, 48 h exposure
Description: as §1, §2

[5] = system: HL-7702 normal human liver cell line; test: MTT cytotoxicity assay, HL-7702 normal liver cells; type: cell-based; details: L02, normal human liver cell HL-7702

melting point | SMILES | IC50 [1] | IC50 ([2]; Homo sapiens, HepG2, 48 h) | IC50 ([3]; Homo sapiens, HeLa, 48 h) | IC50 [4] | IC50 [5] | IC50 [2] | IC50 [3]
185.7 to 187.3 °C | CC(C)c1ccc2c(c1)CCC1C(C)(C(=O)OCC(=O)NN=C/C=C/c3ccccc3)CCCC21C (centres unmarked) [4c, N’-(3-Phenylallylidene)-2-(dehydroabietyloxy)acetohydrazide] | 15.8 ± 0.56 µM | 27.6 ± 0.23 µM | 10.8 ± 0.43 µM | 21.03 ± 0.09 µM | 53.2 ± 1.36 µM | – | –
117.6 to 119 °C | COc1cc(C=NNC(=O)COC(=O)C2(C)CCCC3(C)c4ccc(C(C)C)cc4CCC23)ccc1O (centres unmarked) [4d] | 38.7 ± 0.49 µM | 35.26 ± 0.11 µM | 12.22 ± 0.08 µM | 33.6 ± 0.38 µM | 50.7 ± 1.82 µM | – | –
125.7 to 126.4 °C | CC(C)c1ccc2c(c1)CCC1C(C)(C(=O)OCC(=O)NN=Cc3ccco3)CCCC21C (centres unmarked) [4f] | 51.39 ± 0.34 µM | 25.6 ± 0.35 µM | 33.23 ± 0.21 µM | 16.9 ± 0.41 µM | 61.9 ± 1.34 µM | – | –
94.9 to 96.7 °C | CC(C)c1ccc2c(c1)CCC1C(C)(C(=O)OCC(=O)NN=Cc3ccccc3[N+](=O)[O-])CCCC21C (centres unmarked) [4h] | 98.78 ± 0.45 µM | 44.6 ± 0.92 µM | 15.2 ± 0.29 µM | 38.5 ± 0.52 µM | > 100 µM | – | –
99.6 to 101.9 °C | CC(C)c1ccc2c(c1)CCC1C(C)(C(=O)OCC(=O)NN=Cc3cccc([N+](=O)[O-])c3)CCCC21C (centres unmarked) [4i] | 12.6 ± 0.24 µM | 57.8 ± 0.75 µM | 13.9 ± 0.41 µM | 44.65 ± 0.21 µM | 77.1 ± 0.96 µM | – | –
177.2 to 179.8 °C | CC(C)c1ccc2c(c1)CCC1C(C)(C(=O)OCC(=O)NN=Cc3ccc([N+](=O)[O-])cc3)CCCC21C (centres unmarked) [4j] | 93.26 ± 0.52 µM | 39.5 ± 0.82 µM | 13.06 ± 0.08 µM | 27.45 ± 0.17 µM | > 100 µM | – | –
184.9 to 185.7 °C | CC(C)c1ccc2c(c1)CCC1C(C)(C(=O)OCC(=O)NN=Cc3ccccc3Br)CCCC21C (centres unmarked) [4k, N’-(2-Bromobenzylidene)-2-(dehydroabietyloxy)acetohydrazide] | 47.7 ± 0.23 µM | < 10 µM | < 10 µM | 48.16 ± 0.32 µM | 65.9 ± 1.48 µM | 8.47 ± 0.55 µM | 5.53 ± 0.04 µM

The remaining lines, values behind:

SMILES | melting point | IC50 [1] | IC50 ([2]; Homo sapiens, HepG2, 48 h) | IC50 ([3]; Homo sapiens, HeLa, 48 h) | IC50 [4] | IC50 [5] | IC50 [2] | IC50 [3]
CC(C)c1ccc2c(c1)CCC1C(C)(C(=O)OCC(=O)NN=Cc3ccccc3)CCCC21C (centres unmarked) [4a] | 155.1 to 156.7 °C | 28.2 ± 0.43 µM | 27.8 ± 0.58 µM | 17.89 ± 0.13 µM | 36.7 ± 0.34 µM | > 100 µM | – | –
Cc1ccc(C=NNC(=O)COC(=O)C2(C)CCCC3(C)c4ccc(C(C)C)cc4CCC23)cc1 (centres unmarked) [4b] | 170 to 172.1 °C | 17.2 ± 0.21 µM | 12.4 ± 0.31 µM | 6.72 ± 0.22 µM | 15.38 ± 0.08 µM | 68.6 ± 2.14 µM | – | –
CC(C)c1ccc2c(c1)CCC1C(C)(C(=O)OCC(=O)NN=Cc3ccc(N(C)C)cc3)CCCC21C (centres unmarked) [4e] | 163.4 to 164.7 °C | 48.85 ± 0.05 µM | 7.62 ± 0.32 µM | 34.92 ± 0.16 µM | 15.6 ± 0.44 µM | 63 ± 3.06 µM | – | –
CC(C)c1ccc2c(c1)CCC1C(C)(C(=O)OCC(=O)NN=Cc3ccccc3O)CCCC21C (centres unmarked) [4g] | 214.9 to 215.6 °C | 60.4 ± 1.02 µM | 12.5 ± 0.46 µM | 27.3 ± 0.5 µM | 36.4 ± 0.74 µM | > 100 µM | – | –
CC(C)c1ccc2c(c1)CCC1C(C)(C(=O)OCC(=O)NN=Cc3cccc(Br)c3)CCCC21C (centres unmarked) [4l] | 178.3 to 179.8 °C | 11.45 ± 0.11 µM | 35.1 ± 0.96 µM | 25.14 ± 0.1 µM | 19.9 ± 0.27 µM | 86.4 ± 3.12 µM | – | –
CC(C)c1ccc2c(c1)CCC1C(C)(C(=O)OCC(=O)NN=Cc3ccc(Br)cc3)CCCC21C (centres unmarked) [4m] | 188.1 to 188.6 °C | 89.66 ± 0.27 µM | 9.94 ± 0.59 µM | 12.8 ± 0.15 µM | 23.1 ± 0.33 µM | > 100 µM | – | –
